{"source": "paper PMC6382696", "about": "“Drug Repurposing: The Anthelmintics Niclosamide and Nitazoxanide Are Potent TMEM16A Antagonists That Fully Bronchodilate Airways” (Frontiers in Pharmacology, 2019)"}
{"target": "T1, hTMEM16A (abc) (Homo sapiens, UniProt Q5XXA6, DEL476-501)", "T1 sequence (Q5XXA6 with tags, fused parts or gaps isoform Q5XXA6-5 DEL539-564)": "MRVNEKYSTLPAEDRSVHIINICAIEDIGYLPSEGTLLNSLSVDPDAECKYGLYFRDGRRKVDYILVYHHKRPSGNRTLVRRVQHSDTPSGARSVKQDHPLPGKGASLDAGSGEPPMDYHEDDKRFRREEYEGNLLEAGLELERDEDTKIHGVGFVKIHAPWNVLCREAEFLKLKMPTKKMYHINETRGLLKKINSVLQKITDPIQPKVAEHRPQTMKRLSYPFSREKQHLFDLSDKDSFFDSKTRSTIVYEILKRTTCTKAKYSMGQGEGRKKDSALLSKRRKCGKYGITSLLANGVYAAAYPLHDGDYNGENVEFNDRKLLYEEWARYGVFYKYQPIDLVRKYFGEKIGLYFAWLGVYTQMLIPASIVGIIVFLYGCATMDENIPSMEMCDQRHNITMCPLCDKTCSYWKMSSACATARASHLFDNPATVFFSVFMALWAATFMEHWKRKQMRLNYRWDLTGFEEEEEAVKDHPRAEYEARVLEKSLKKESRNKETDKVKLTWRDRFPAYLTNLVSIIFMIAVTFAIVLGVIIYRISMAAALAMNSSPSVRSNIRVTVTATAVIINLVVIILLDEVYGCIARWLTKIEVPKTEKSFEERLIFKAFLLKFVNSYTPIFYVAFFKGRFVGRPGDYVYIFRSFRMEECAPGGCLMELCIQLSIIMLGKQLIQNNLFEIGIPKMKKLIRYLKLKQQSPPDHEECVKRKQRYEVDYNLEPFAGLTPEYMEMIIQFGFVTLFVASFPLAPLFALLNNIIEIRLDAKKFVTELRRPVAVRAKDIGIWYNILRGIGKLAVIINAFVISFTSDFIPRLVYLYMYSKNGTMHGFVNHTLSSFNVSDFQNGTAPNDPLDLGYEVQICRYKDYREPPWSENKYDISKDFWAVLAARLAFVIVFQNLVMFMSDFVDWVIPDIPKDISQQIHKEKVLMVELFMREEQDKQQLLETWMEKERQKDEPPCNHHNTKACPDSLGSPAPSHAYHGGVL", "test": "IonWorks Barracuda perforated patch clamp, ionomycin-activated TMEM16A inward current", "format": "cell-based", "details": "10 μM ionomycin, Vhold −30 mV", "source_text": "HEK293 cells stably expressing the human TMEM16A (abc) variant and CHO cells expressing the human CFTR gene were from ChanTest. The IonWorks Barracuda (IWB) procedure and data provided are from outsourced studies performed at ChanTest (Charles River Discovery, Cleveland, OH, United States) who were blinded as to the identity of the test articles or compounds provided by Amgen. As a control, benchmark inhibitors CFTRinh-172, GlyH-101 and benzbromarone were included amongst the blinded compounds submitted and performed as expected.\nFor IonWorks Barracuda studies on TMEM16A compounds, in brief eight test article concentrations were applied to naïve cells (n = 4, where n = the number of replicate wells/concentration) via steel needles of a 384-channel pipettor. Each application consists of addition of 20 μl of 2X concentrated test article solution to the total 40 μl final volume of the extracellular well of the Population Patch ClampTM (PPC) planar electrode. This addition is followed by mixing (one time) of the PPC well content. Duration of exposure to each test article concentration was at least 5 min. The electrophysiology procedure used: (a) Intracellular solution containing 50 mM CsCl, 90 mM CsF, 5 mM MgCl2, 1 mM EGTA, 10 mM HEPES, adjusted to pH 7.2 with CsOH; (b) Amphotericin B for patch perforation, where 30 mg/ml stock solution of amphotericin B in DMSO is added to internal solution to final concentration of 33.3 μg/ml; (c) Extracellular solution containing HEPES-buffered physiological saline (HBPS): 137 mM NaCl, 4 mM KCl, 1.8 mM CaCl2, 1 mM MgCl2, 10 mM HEPES, 10 mM glucose, adjusted to pH 7.4 with NaOH; and (d) Ionomycin stimulation of chloride currents where 10 μM ionomycin is added to all test solutions including vehicle and positive controls. […] After establishment of a whole-cell configuration via patch perforation (∼7–10 min exposure to amphotericin B), membrane currents were recorded using the on-board patch clamp amplifiers. […]"}
{"smiles": "N#Cc1c(C(F)(F)F)cc(O)n2c1nc1ccccc12", "note": "[1PBC]", "effect on ionomycin-activated inward current at −100 mV, perforated patch clamp": "robust inhibition"}
{"smiles": "CCc1oc2ccccc2c1C(=O)c1cc(Br)c(O)c(Br)c1", "note": "[Benzbromarone]", "effect on ionomycin-activated inward current at −100 mV, perforated patch clamp": "effective in blocking"}
{"smiles": "O=C(O)c1cccnc1Nc1cccc(C(F)(F)F)c1", "note": "[Niflumic Acid]", "effect on ionomycin-activated inward current at −100 mV, perforated patch clamp": "inhibition (not stimulation)"}
